Reference: patent publication US11395857B2, “Radiolabeled melanocortin 1 receptor-specific alpha-melanocyte-stimulating hormone analogues for imaging or therapy” (PROVINCIAL HEALTH SERVICES AUTHORITY, priority 2018, dated 2022)
Like-named read-outs stand apart in the source and are kept apart here.

Tests used:
[1] = Biodistribution of 177Lu-labeled αMSH analogues in mice bearing B16F10 mouse melanoma; assay type: in vivo, C57BL/6J mice; details: mouse, iv, total radioactivity, C57BL/6J mice, B16F10 melanoma
Protocol: (§1) The B16-F10 mouse melanoma cells were cultured and inoculated in mice as described in Example 1.
(§2) For biodistribution studies, approximately 1-2 MBq of ^177Lu-labeled αMSH analogues via tail vein under anesthesia. At 1, 4, 24, and 120 h p.i., the mice were euthanized by CO2 inhalation. Organs/tissues were harvested and the radioactivity was measured as described in Example 1.

B16F10 mouse melanoma = assay: as above; assay type: in vivo, C57BL/6J mice; details: C57BL/6J mice, B16F10 melanoma
Protocol: as §1, §2

Structure (SMILES): CCCC[C@H](NC(=O)CN1CCC(NC(=O)CN2CCN(CC(=O)O)CCN(CC(=O)O)CCN(CC(=O)O)CC2)CC1)C(=O)N[C@H]1CC(=O)NCCCC[C@@H](C(N)=O)N(C)C(=O)[C@H](Cc2c[nH]c3ccccc23)NC(=O)[C@H](CCCNC(=N)N)N(C)C(=O)[C@@H](Cc2ccccc2)NC(=O)[C@H](Cc2c[nH]cn2)NC1=O [^177Lu-labeled CCZ01106, metal not drawn]
- tissue uptake at 1 h ([1]; male, seminal glands, 1 h p.i., read-out: Biodistribution, Seminal glands): 0.22 ± 0.35 %ID/g
- tissue uptake at 4 h ([1]; male, seminal glands, 4 h p.i., read-out: Biodistribution, Seminal glands): 0.02 %ID/g
- tissue uptake at 24 h ([1]; male, seminal glands, 24 h p.i., read-out: Biodistribution, Seminal glands): 0.01 %ID/g
- tissue uptake at 120 h ([1]; male, seminal glands, 120 h p.i., read-out: Biodistribution, Seminal glands): 0.01 ± 0.01 %ID/g
- tissue uptake at 1 h ([1]; male, testes, 1 h p.i., read-out: Biodistribution, Testes): 0.17 ± 0.06 %ID/g
- tissue uptake at 4 h ([1]; male, testes, 4 h p.i., read-out: Biodistribution, Testes): 0.04 %ID/g
- tissue uptake at 24 h ([1]; male, testes, 24 h p.i., read-out: Biodistribution, Testes): 0.03 %ID/g
- tissue uptake at 120 h ([1]; male, testes, 120 h p.i., read-out: Biodistribution, Testes): 0.02 %ID/g
- tissue uptake at 1 h ([1]; adrenal glands, 1 h p.i., read-out: Biodistribution, Adrenal glands): 0.54 ± 0.28 %ID/g
- tissue uptake at 4 h ([1]; adrenal glands, 4 h p.i., read-out: Biodistribution, Adrenal glands): 0.13 ± 0.06 %ID/g
- tissue uptake at 24 h ([1]; adrenal glands, 24 h p.i., read-out: Biodistribution, Adrenal glands): 0.23 ± 0.18 %ID/g
- tissue uptake at 120 h ([1]; adrenal glands, 120 h p.i., read-out: Biodistribution, Adrenal glands): 0.02 ± 0.02 %ID/g
- tissue uptake at 1 h ([1]; blood, 1 h p.i., read-out: Biodistribution, Blood): 0.49 ± 0.22 %ID/g
- tissue uptake at 4 h ([1]; blood, 4 h p.i., read-out: Biodistribution, Blood): 0.02 %ID/g
- tissue uptake at 24 h ([1]; blood, 24 h p.i., read-out: Biodistribution, Blood): 0.01 %ID/g
- tissue uptake at 1 h ([1]; bone, 1 h p.i., read-out: Biodistribution, Bone): 0.18 ± 0.04 %ID/g
- tissue uptake at 4 h ([1]; bone, 4 h p.i., read-out: Biodistribution, Bone): 0.07 ± 0.02 %ID/g
- tissue uptake at 24 h ([1]; bone, 24 h p.i., read-out: Biodistribution, Bone): 0.06 ± 0.01 %ID/g
- tissue uptake at 120 h ([1]; bone, 120 h p.i., read-out: Biodistribution, Bone): 0.04 ± 0.01 %ID/g
- tissue uptake at 1 h ([1]; brain, 1 h p.i., read-out: Biodistribution, Brain): 0.02 %ID/g
- tissue uptake at 4 h ([1]; brain, 4 h p.i., read-out: Biodistribution, Brain): 0.01 %ID/g
- tissue uptake at 24 h ([1]; brain, 24 h p.i., read-out: Biodistribution, Brain): 0.01 %ID/g
- tissue uptake at 1 h ([1]; fat, 1 h p.i., read-out: Biodistribution, Fat): 0.05 ± 0.02 %ID/g
- tissue uptake at 4 h ([1]; fat, 4 h p.i., read-out: Biodistribution, Fat): 0.01 ± 0.01 %ID/g
- tissue uptake at 24 h ([1]; fat, 24 h p.i., read-out: Biodistribution, Fat): 0.01 %ID/g
- tissue uptake at 1 h ([1]; heart, 1 h p.i., read-out: Biodistribution, Heart): 0.19 ± 0.07 %ID/g
- tissue uptake at 4 h ([1]; heart, 4 h p.i., read-out: Biodistribution, Heart): 0.03 %ID/g
- tissue uptake at 24 h ([1]; heart, 24 h p.i., read-out: Biodistribution, Heart): 0.02 %ID/g
- tissue uptake at 120 h ([1]; heart, 120 h p.i., read-out: Biodistribution, Heart): 0.01 %ID/g
- tissue uptake at 1 h ([1]; intestine, 1 h p.i., read-out: Biodistribution, Intestine): 0.45 ± 0.2 %ID/g
- tissue uptake at 4 h ([1]; intestine, 4 h p.i., read-out: Biodistribution, Intestine): 0.11 ± 0.06 %ID/g
- tissue uptake at 24 h ([1]; intestine, 24 h p.i., read-out: Biodistribution, Intestine): 0.13 ± 0.04 %ID/g
- tissue uptake at 120 h ([1]; intestine, 120 h p.i., read-out: Biodistribution, Intestine): 0.06 ± 0.07 %ID/g
- tissue uptake at 1 h ([1]; kidneys, 1 h p.i., read-out: Biodistribution, Kidneys): 4.79 ± 0.92 %ID/g
- tissue uptake at 4 h ([1]; kidneys, 4 h p.i., read-out: Biodistribution, Kidneys): 3.31 ± 0.66 %ID/g
- tissue uptake at 24 h ([1]; kidneys, 24 h p.i., read-out: Biodistribution, Kidneys): 1.24 ± 0.46 %ID/g
- tissue uptake at 120 h ([1]; kidneys, 120 h p.i., read-out: Biodistribution, Kidneys): 0.36 ± 0.05 %ID/g
- tissue uptake at 1 h ([1]; liver, 1 h p.i., read-out: Biodistribution, Liver): 0.88 ± 0.16 %ID/g
- tissue uptake at 4 h ([1]; liver, 4 h p.i., read-out: Biodistribution, Liver): 0.81 ± 0.08 %ID/g
- tissue uptake at 24 h ([1]; liver, 24 h p.i., read-out: Biodistribution, Liver): 0.58 ± 0.14 %ID/g
- tissue uptake at 120 h ([1]; liver, 120 h p.i., read-out: Biodistribution, Liver): 0.34 ± 0.03 %ID/g
- tissue uptake at 1 h ([1]; lungs, 1 h p.i., read-out: Biodistribution, Lungs): 0.6 ± 0.19 %ID/g
- tissue uptake at 4 h ([1]; lungs, 4 h p.i., read-out: Biodistribution, Lungs): 0.14 ± 0.04 %ID/g
- tissue uptake at 24 h ([1]; lungs, 24 h p.i., read-out: Biodistribution, Lungs): 0.06 ± 0.02 %ID/g
- tissue uptake at 120 h ([1]; lungs, 120 h p.i., read-out: Biodistribution, Lungs): 0.01 ± 0.01 %ID/g
- tissue uptake at 1 h ([1]; muscle, 1 h p.i., read-out: Biodistribution, Muscle): 0.12 ± 0.05 %ID/g
- tissue uptake at 4 h ([1]; muscle, 4 h p.i., read-out: Biodistribution, Muscle): 0.02 ± 0.01 %ID/g
- tissue uptake at 24 h ([1]; muscle, 24 h p.i., read-out: Biodistribution, Muscle): 0.01 ± 0.01 %ID/g
- tissue uptake at 1 h ([1]; pancreas, 1 h p.i., read-out: Biodistribution, Pancreas): 0.15 ± 0.05 %ID/g
- tissue uptake at 4 h ([1]; pancreas, 4 h p.i., read-out: Biodistribution, Pancreas): 0.03 %ID/g
- tissue uptake at 24 h ([1]; pancreas, 24 h p.i., read-out: Biodistribution, Pancreas): 0.03 ± 0.01 %ID/g
- tissue uptake at 120 h ([1]; pancreas, 120 h p.i., read-out: Biodistribution, Pancreas): 0.01 %ID/g
- tissue uptake at 1 h ([1]; spleen, 1 h p.i., read-out: Biodistribution, Spleen): 0.38 ± 0.11 %ID/g
- tissue uptake at 4 h ([1]; spleen, 4 h p.i., read-out: Biodistribution, Spleen): 0.24 ± 0.03 %ID/g
- tissue uptake at 24 h ([1]; spleen, 24 h p.i., read-out: Biodistribution, Spleen): 0.2 ± 0.04 %ID/g
- tissue uptake at 120 h ([1]; spleen, 120 h p.i., read-out: Biodistribution, Spleen): 0.11 ± 0.01 %ID/g
- tissue uptake at 1 h ([1]; stomach, 1 h p.i., read-out: Biodistribution, Stomach): 0.36 ± 0.22 %ID/g
- tissue uptake at 4 h ([1]; stomach, 4 h p.i., read-out: Biodistribution, Stomach): 0.11 ± 0.02 %ID/g
- tissue uptake at 24 h ([1]; stomach, 24 h p.i., read-out: Biodistribution, Stomach): 0.42 ± 0.18 %ID/g
- tissue uptake at 120 h ([1]; stomach, 120 h p.i., read-out: Biodistribution, Stomach): 0.1 ± 0.08 %ID/g
- tissue uptake at 1 h ([1]; thyroid, 1 h p.i., read-out: Biodistribution, Thyroid): 0.43 ± 0.11 %ID/g
- tissue uptake at 4 h ([1]; thyroid, 4 h p.i., read-out: Biodistribution, Thyroid): 0.27 ± 0.06 %ID/g
- tissue uptake at 24 h ([1]; thyroid, 24 h p.i., read-out: Biodistribution, Thyroid): 0.17 ± 0.01 %ID/g
- tissue uptake at 120 h ([1]; thyroid, 120 h p.i., read-out: Biodistribution, Thyroid): 0.05 ± 0.02 %ID/g
- tissue to tissue ratio at 1 h ([1]; tumour/blood, 1 h p.i., read-out: Tumour/blood): 19.2 ± 8.25
- tissue to tissue ratio at 4 h ([1]; tumour/blood, 4 h p.i., read-out: Tumour/blood): 414 ± 59
- tissue to tissue ratio at 24 h ([1]; tumour/blood, 24 h p.i., read-out: Tumour/blood): 652 ± 101
- tissue to tissue ratio at 120 h ([1]; tumour/blood, 120 h p.i., read-out: Tumour/blood): 466 ± 382
- tissue to tissue ratio at 1 h ([1]; tumour/kidney, 1 h p.i., read-out: Tumour/kidney): 1.75 ± 0.47
- tissue to tissue ratio at 4 h ([1]; tumour/kidney, 4 h p.i., read-out: Tumour/kidney): 2.46 ± 0.87
- tissue to tissue ratio at 24 h ([1]; tumour/kidney, 24 h p.i., read-out: Tumour/kidney): 3.08 ± 1.05
- tissue to tissue ratio at 120 h ([1]; tumour/kidney, 120 h p.i., read-out: Tumour/kidney): 1.44 ± 1.14
- tissue to tissue ratio at 1 h ([1]; tumour/muscle, 1 h p.i., read-out: Tumour/muscle): 75 ± 29.8
- tissue to tissue ratio at 4 h ([1]; tumour/muscle, 4 h p.i., read-out: Tumour/muscle): 452 ± 158
- tissue to tissue ratio at 24 h ([1]; tumour/muscle, 24 h p.i., read-out: Tumour/muscle): 320 ± 91.8
- tissue to tissue ratio at 120 h ([1]; tumour/muscle, 120 h p.i., read-out: Tumour/muscle): 117 ± 92.2
- excreta dose per gram or mL at 1 h ([1]; urine, 1 h p.i.): 222 ± 81.1 %ID/g
- excreta dose per gram or mL at 4 h ([1]; urine, 4 h p.i.): 19.3 ± 4.21 %ID/g
- excreta dose per gram or mL at 24 h ([1]; urine, 24 h p.i.): 0.94 ± 0.48 %ID/g
- excreta dose per gram or mL at 120 h ([1]; urine, 120 h p.i.): 0.15 ± 0.07 %ID/g
- Biodistribution, B16F10 tumour (B16F10 mouse melanoma; 1 h p.i.): 8.25 ± 1.94 % ID/g
- Biodistribution, B16F10 tumour (B16F10 mouse melanoma; 4 h p.i.): 7.81 ± 2.16 % ID/g
- Biodistribution, B16F10 tumour (B16F10 mouse melanoma; 24 h p.i.): 3.45 ± 0.30 % ID/g
- Biodistribution, B16F10 tumour (B16F10 mouse melanoma; 120 h p.i.): 0.49 ± 0.36 % ID/g
- Biodistribution, Blood (B16F10 mouse melanoma; 120 h p.i.): 0.00 ± 0.00 % ID/g
- Biodistribution, Brain (B16F10 mouse melanoma; 120 h p.i.): 0.00 ± 0.00 % ID/g
- Biodistribution, Fat (B16F10 mouse melanoma; 120 h p.i.): 0.00 ± 0.00 % ID/g
- Biodistribution, Muscle (B16F10 mouse melanoma; 120 h p.i.): 0.00 ± 0.00 % ID/g
